According to patent publication US20070270393A1, “Methods and compositions for modulation of sleep cycle” (priority 2006, published 2007):
Several values for one entry are separate records, joined by “and”; a condition that tells them apart may be missing. Identical values can stand only once.

Legend:
[1] = tested on: MR and GR; conditions: Reul and de Kloet 1985; cited from earlier work
[2] = tested on: nocturnal HPA axis activity in healthy controls; assay: Two day repeated measures study of fludrocortisone's acute effects on nocturnal HPA axis activity; assay type: in vivo, human
Description: Nine healthy subjects were recruited from the community via flyers and internet postings. Subjects responding to ads were phone screened to determine if subjects met initial eligibility criteria. Those subjects meeting criteria underwent physical examination, screening labs (complete blood count, comprehensive metabolic panel, urine analysis, urine toxicology screen, TSH, FT4, serum pregnancy test) and EKG. A SCID was performed to rule out Axis I and Axis II DSM-TR pathology. At the time of this analysis and manuscript preparation, 9 subjects have been enrolled. Inclusion criteria were: (1) participants are age 18 to 85 years old with a HAM-D score less than or equal to 5. Exclusion criteria were: (1) personal history of Axis I or Axis II disorders; (2) active medical problems; (3) abuse of drugs or alcohol in the 6 months prior to study; (4) use of additional prescription medications, street drugs or alcohol during the week before the study; (5) currently pregnant or lactating.
This study is a two day repeated measures study of fludrocortisone's acute effects on nocturnal HPA axis activity in healthy controls. Blood samples were taken every 30 minutes, beginning at 1600 to 2400 on Days 1. At 1400 on Day 2, all subjects were given 0.5 mg of fludrocortisone. Blood was then resampled from 1600 to 2400 on Day 2 to assess nocturnal changes in HPA axis activity. Blood sampling was timed in the first half of the night to coincide with the time period of greatest activity of MR.
Group averages, standard deviation and effect sizes are reported. The primary end-points were chosen to be mean cortisol and ACTH from 1600 to 2400 when greatest mineralocorticoid receptor activity is expected. To determine the differential effects of fludrocortisone, data from all subjects are pooled and the average values from 1600 to 2400 are computed. Next, mean values across this time interval are computed before (Time 1) and after (Time 2) fludrocortisone and the effect size for the difference between pooled mean values is computed.

[3] = biological target: T1, glucocorticoid (GR) receptors (Homo sapiens, UniProt P04150); conditions: literature; cited from earlier work
T1 sequence (P04150 1-777): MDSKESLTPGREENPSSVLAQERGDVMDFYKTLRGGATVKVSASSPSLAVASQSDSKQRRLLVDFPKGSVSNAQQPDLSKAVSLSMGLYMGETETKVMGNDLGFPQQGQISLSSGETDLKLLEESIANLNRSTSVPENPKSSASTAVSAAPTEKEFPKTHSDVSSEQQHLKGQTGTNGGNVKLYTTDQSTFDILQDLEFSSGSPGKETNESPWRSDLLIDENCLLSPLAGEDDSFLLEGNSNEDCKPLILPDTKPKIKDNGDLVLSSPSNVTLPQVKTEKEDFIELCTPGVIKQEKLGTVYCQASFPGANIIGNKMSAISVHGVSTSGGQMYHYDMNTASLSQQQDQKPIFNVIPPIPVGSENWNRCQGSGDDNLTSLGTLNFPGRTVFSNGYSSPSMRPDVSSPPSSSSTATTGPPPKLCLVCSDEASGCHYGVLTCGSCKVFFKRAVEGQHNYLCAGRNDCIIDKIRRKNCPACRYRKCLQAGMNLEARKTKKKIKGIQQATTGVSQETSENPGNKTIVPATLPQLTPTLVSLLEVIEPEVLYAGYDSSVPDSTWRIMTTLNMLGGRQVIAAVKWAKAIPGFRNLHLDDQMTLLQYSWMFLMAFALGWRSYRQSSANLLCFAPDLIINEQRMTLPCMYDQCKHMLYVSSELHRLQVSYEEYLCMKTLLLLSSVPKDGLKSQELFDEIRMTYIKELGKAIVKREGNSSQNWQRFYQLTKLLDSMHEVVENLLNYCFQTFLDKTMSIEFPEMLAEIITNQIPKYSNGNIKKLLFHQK

[4] = 0.5 mg fludrocortisone, treatment vs baseline

C[C@]12CCC(=O)C=C1CC[C@@H]1[C@@H]2[C@@H](O)C[C@@]2(C)[C@H]1CC[C@]2(O)C(=O)CO [cortisol]
affinity for MR relative to GR [1]: greater affinity for MR than GR

C[C@]12CCC(=O)C=C1CC[C@H]1[C@@H]3CC[C@](O)(C(=O)CO)[C@@]3(C)C[C@H](O)[C@@]12F [fludrocortisone]
Mean ACTH (1600 to 2400), Difference (Tx − Baseline) ([2]; 0.5 mg fludrocortisone at 1400 on Day 2): 5.76 pg/mL
Mean Cortisol (1600 to 2400), Difference (Tx − Baseline) ([2]; 0.5 mg fludrocortisone at 1400 on Day 2, 9 healthy subjects): 2.19 µg/dL
Mean Cortisol/ACTH (1600 to 2400), Difference (Tx − Baseline) ([2]; 0.5 mg fludrocortisone, post-hoc analysis): 0.0686 and 0.07
Mean ACTH (1600 to 2400), Effect Size [2, 4]: 4.46
Mean Cortisol (1600 to 2400), Effect Size [2, 4]: 1.65
Mean Cortisol/ACTH (1600 to 2400), Effect Size [2, 4]: 0.92
Mean ACTH (1600 to 2400), AUC Treatment ([2]; after 0.5 mg fludrocortisone): 13.2 pm/ml
Mean Cortisol (1600 to 2400), AUC Treatment ([2]; after 0.5 mg fludrocortisone): 1.77 µg/dL

CC#C[C@]1(O)CC[C@H]2[C@@H]3CCC4=CC(=O)CCC4=C3[C@@H](c3ccc(OCCN(C)C)cc3)C[C@@]21C [RU009, 11-beta-(4-dimethyl-aminoethoxyphenyl)-17-alpha-(propynyl-17beta-hydroxy-4,9-estradien-3-one)]
antagonist of glucocorticoid (GR) receptors [3]: GR antagonist effects
